Laboratory results published in patent US7964625B2, “Antibiotics comprising bis(1-aryl-5-tetrazoly1)methane derivatives” (Nederlandse Organisatie Voor …, priority 2005, dated 2011).
In brackets after ≈: the same amount, converted by molar mass. Like-named read-outs stand apart in the source and are kept apart here.

Key:
S. aureus ATCC 29213 = experiment: MIC test, single strain S. aureus ATCC 29213; assay type: cell-based; conditions: for MIC: Staphylococcus aureus
Experimental: (§1) MIC test were performed according to standard methodology: M7-A6-“Methods for Dilution Antimicrobial Susceptibility Tests for Bacteria That Grow Aerobically”; Approved Standard, Sixth Edition Clinical and Laboratory Standards Institute 2005 (CLSI/formerly NCCLS).
(§2) Table II lists the results of 6 different compounds according to Formula (I) on single strains of S. aureus as MIC values expressed in micrograms per milliliter.
(§3) Table IV lists additional MIC data on single strains of S. aureus as MIC values expressed in micrograms per milliliter. Again BAS 00160352 (NewCo003) is tested, next to its monochloric pendant (NewCo0030) and several of the new compounds of Table I. Some of the experiments were carried out in duplicate. Strains TTC03.0236 and TTC03.0239 are two MRSA strains obtained from the Utrecht University Medical Centre (UMC 01-8756/140 and UMC 03-543155, respectively). Several of the new compounds of Table I appear to be at least as active as NewCo003.

S. aureus TTC03.0236 = experiment: MIC test, single strain S. aureus TTC03.0236 (MRSA); assay type: cell-based; conditions: Table IV, MRSA strain UMC 01-8756/140, some in duplicate
Experimental: as §1, §3

S. aureus MW2 = experiment: MIC test, single strain S. aureus MW2; assay type: cell-based; conditions: for MIC S. aureus MW2: Table II; for MIC: Staphylococcus aureus, MW2, Table II
Experimental: as §1, §2

S. aureus N315 = experiment: MIC test, single strain S. aureus N315; assay type: cell-based; conditions: for MIC S. aureus N315: Table II; for MIC: Staphylococcus aureus, N315, Table II
Experimental: as §1, §2

S. aureus strains = experiment: MIC test on multiple strains of S. aureus; assay type: cell-based; conditions: for Range MIC (highest): highest value found; for Range MIC (lowest): lowest value found
Experimental: as §1

S. aureus TTC03.0239 = experiment: MIC test, single strain S. aureus TTC03.0239 (MRSA); assay type: cell-based; conditions: Table IV, MRSA strain UMC 03-543155, some in duplicate
Experimental: as §1, §3

MRSA 2141 = experiment: Local thigh muscle infection with MRSA 2141 in the mouse, CFU outgrowth; assay type: in vivo; conditions: for Reduction of MRSA 2141 CFU in thigh muscle: 24 hours after dosing, vs vehicle
Experimental: The purpose of this study was to investigate the antibiotic efficacy of different doses of compound BAS00160352 (NewCo003) against a local infection with MRSA 2141 in the mouse. Thirty mice were treated intravenously with 0.05, 0.5 or 5.0 mg/kg body weight, respectively. Outgrowth of the infection was used to establish drug efficacy.
For each administered dose the appropriate stock solution was made as a 1 ml aliquot of the test substance in the vehicle (DMSO). The stock solutions were stored at 2-8° C. for 16 hours.
(§4) The test substances were administered as a solution in dimethylsulfoxide (DMSO). The test substance was administered as 20 μl injections per mouse at all dose levels. Vancomycin was used as positive control and injected intravenously as a 10 mg/ml solution in DMSO (20 μl per mouse). Fresh dilutions of the test substance in vehicle were provided, stored at 2-8° C., and used within 18 hours after preparation. Shortly before injection the test substance was warmed to room temperature.
The mice were injected i.m. with 22E05 MRSA 2141 bacteria, strain 2141 in the right thigh muscle, followed one day later by an i.v. injection of the test compound, vancomycin or vehicle in the tail vein. 24 hours later mice were sacrificed, blood was collected by heart puncture and the right thigh muscle was removed. Plasma was prepared from blood samples and stored at −80°±10° C. for possible future analysis. Thigh muscles were weighted and homogenized using an Ultra-Turrax® and dilutions of the homogenate were prepared in saline. Limiting dilutions were plated onto agar plates and two days later the number of MRSA 2141 CFU were determined for each individual mouse as an indication of bactericidal activity of the compound. Additionally, tests were performed to determine if the bacteria used are still oxacillin resistant Staphylococcus aureus. This was done before injection and on pooled thigh muscle isolates per group. […] In vivo antibiotic activity is determined by a CFU reduction of >90% (1 log reduction) in comparison to the negative control (vehicle only). […]

[1] = Observation for adverse side effects after i.v. injection in infected mice; assay type: in vivo; conditions: mouse, i.v., 0.05, 0.5 or 5.0 mg/kg in DMSO
Experimental: as §4
The mice were injected i.m. with 22E05 MRSA 2141 bacteria, strain 2141 in the right thigh muscle, followed one day later by an i.v. injection of the test compound, vancomycin or vehicle in the tail vein. 24 hours later mice were sacrificed, blood was collected by heart puncture and the right thigh muscle was removed. Plasma was prepared from blood samples and stored at −80°±10° C. for possible future analysis. Thigh muscles were weighted and homogenized using an Ultra-Turrax® and dilutions of the homogenate were prepared in saline. Limiting dilutions were plated onto agar plates and two days later the number of MRSA 2141 CFU were determined for each individual mouse as an indication of bactericidal activity of the compound. […] In vivo antibiotic activity is determined by a CFU reduction of >90% (1 log reduction) in comparison to the negative control (vehicle only).

[2] = ATCC29213, Table II, single strain, read-out: MIC S. aureus ATCC 29213
[3] = Staphylococcus aureus, 60 tested S. aureus strains, read-out: MIC 50
[4] = Staphylococcus aureus, 60 tested S. aureus strains, read-out: MIC 90

With `Fc1ccccc1-n1nnnc1C(Cl)(Cl)c1nnnn1-c1ccccc1F` [NewCo0018, Bis-(1-o-fluorobenzene-5-tetrazolyl)-dichloromethane] the “MIC S. aureus ATCC 29213” value (S. aureus ATCC 29213; Table IV, some in duplicate) was 1.56 micrograms per milliliter and the “MIC S. aureus TTC03.0236” value (S. aureus TTC03.0236) was 0.78 micrograms per milliliter.
With `Clc1ccc(-n2nnnc2C(Cl)(Cl)c2nnnn2-c2ccc(Cl)cc2)cc1` [NewCo001, Bis-(1-p-chlorobenzen-5-tetrazolyl)-dichloromethane] the “MIC S. aureus ATCC 29213” value (S. aureus ATCC 29213; Table II, single strain) was 16 micrograms per milliliter, the “MIC S. aureus MW2” value (S. aureus MW2) was 32 micrograms per milliliter and the “MIC S. aureus N315” value (S. aureus N315) was 2 micrograms per milliliter. The “MIC50” value (S. aureus strains; 60 tested S. aureus strains) was 4 microgram/milliliter, the “MIC90” value (S. aureus strains; 60 tested S. aureus strains) was 16 microgram/milliliter and the “Range MIC (highest)” value (S. aureus strains; 60 tested S. aureus strains) was >32 microgram/milliliter. The “Range MIC (lowest)” value (S. aureus strains; 60 tested S. aureus strains) was 1 microgram/milliliter.
For `COc1ccccc1-n1nnnc1C(Cl)(Cl)c1nnnn1-c1ccccc1OC` [NewCo006, Bis-(1-o-methoxybenzene-5-tetrazolyl)-dichloromethane], the “MIC S. aureus ATCC 29213” value (S. aureus ATCC 29213; Table II, single strain) was 4 micrograms per milliliter.
In the case of `Cc1ccc(-n2nnnc2C(Cl)(Cl)c2nnnn2-c2ccc(C)cc2)cc1` [NewCo002, Bis-(1-p-tolyl-5-tetrazolyl)-dichloromethane], the MIC (S. aureus ATCC 29213; [2]) is reported as > 32 µg/mL, the MIC (S. aureus MW2) is reported as > 32 µg/mL and the MIC (S. aureus N315) is reported as 4 µg/mL (≈ 9.97 µM). The “Range MIC (highest)” value (S. aureus strains; 60 tested S. aureus strains) was >32 microgram/milliliter, the “Range MIC (lowest)” value (S. aureus strains; 60 tested S. aureus strains) was 0.5 microgram/milliliter and the MIC50 (S. aureus strains; [3]) was 32 µg/mL (≈ 79.7 µM). The MIC90 (S. aureus strains; [4]) was > 32 µg/mL.
Compound `Cc1ccc(-n2nnnc2C(Cl)c2nnnn2-c2ccc(C)cc2)cc1` [NewCo005, Bis-(1-p-tolyl-5-tetrazolyl)-chloromethane] has an MIC (S. aureus ATCC 29213; [2]) of 4 µg/mL (≈ 10.9 µM).
For `COc1ccccc1-n1nnnc1C(Cl)(Cl)c1nnnn1-c1ccccc1OC` [NewCo007, Bis-(1-o-methoxybenzene-5-tetrazolyl)-dichloromethane], the “MIC S. aureus ATCC 29213” value (S. aureus ATCC 29213; Table IV, some in duplicate) was 1.56 micrograms per milliliter, the “MIC S. aureus TTC03.0236” value (S. aureus TTC03.0236) was 1.56 micrograms per milliliter and the “MIC S. aureus TTC03.0239” value (S. aureus TTC03.0239) was 1.56 micrograms per milliliter.
In the case of `COc1ccc(-n2nnnc2C(Cl)(Cl)c2nnnn2-c2ccc(OC)c(Cl)c2)cc1Cl` [NewCo0021, Bis-(1-m-chloro-p-methoxybenzene-5-tetrazolyl)-dichloromethane], the “MIC S. aureus ATCC 29213” value (S. aureus ATCC 29213; Table IV, some in duplicate) is reported as 1.56 micrograms per milliliter, the “MIC S. aureus TTC03.0236” value (S. aureus TTC03.0236) is reported as 0.78 micrograms per milliliter and the “MIC S. aureus TTC03.0239” value (S. aureus TTC03.0239) is reported as 1.56 micrograms per milliliter.
With `ClC(Cl)(c1nnnn1-c1ccccc1)c1nnnn1-c1ccccc1` [NewCo004, Bis-(1-benzene-5-tetrazolyl)-dichloromethane] the “MIC S. aureus ATCC 29213” value (S. aureus ATCC 29213; Table II, single strain) was 1 micrograms per milliliter, the “MIC S. aureus MW2” value (S. aureus MW2) was 1 micrograms per milliliter and the “MIC S. aureus N315” value (S. aureus N315) was 0.25 micrograms per milliliter. The “MIC50” value (S. aureus strains; 60 tested S. aureus strains) was 1 microgram/milliliter, the “MIC90” value (S. aureus strains; 60 tested S. aureus strains) was 2 microgram/milliliter and the “Range MIC (highest)” value (S. aureus strains; 60 tested S. aureus strains) was 4 microgram/milliliter. The “Range MIC (lowest)” value (S. aureus strains; 60 tested S. aureus strains) was 0.25 microgram/milliliter.
In the case of `Clc1cccc(-n2nnnc2C(Cl)(Cl)c2nnnn2-c2cccc(Cl)c2Cl)c1Cl` [NewCo0023, Bis-(1-o,m-dichlorobenzene-5-tetrazolyl)-dichloromethane], the “MIC S. aureus ATCC 29213” value (S. aureus ATCC 29213; Table IV, some in duplicate) is reported as 0.19 micrograms per milliliter, the “MIC S. aureus TTC03.0236” value (S. aureus TTC03.0236) is reported as 0.19 micrograms per milliliter and the “MIC S. aureus TTC03.0239” value (S. aureus TTC03.0239) is reported as 0.39 micrograms per milliliter.
For `Cc1ccccc1-n1nnnc1C(Cl)(Cl)c1nnnn1-c1ccccc1C` [NewCo003, Bis-(1-o-tolyl-5-tetrazolyl)-dichloromethane], the MIC (S. aureus ATCC 29213; [2]) was 0.06 µg/mL (≈ 0.15 µM), the MIC (S. aureus ATCC 29213; ATCC29213, Table IV, some in duplicate, read-out: MIC S. aureus ATCC 29213) was 0.19 µg/mL (≈ 0.474 µM) and the “MIC S. aureus ATCC 29213” value (S. aureus ATCC 29213; Table IV, some in duplicate) was 0.1 micrograms per milliliter. For the same compound, the MIC (S. aureus MW2) was 0.06 µg/mL (≈ 0.15 µM), the MIC (S. aureus N315) was 0.125 µg/mL (≈ 0.312 µM) and the “Range MIC (highest)” value (S. aureus strains; 60 tested S. aureus strains) was 0.5 microgram/milliliter. The “Range MIC (lowest)” value (S. aureus strains; 60 tested S. aureus strains) was 0.03 microgram/milliliter, the MIC50 (S. aureus strains; [3]) was 0.06 µg/mL (≈ 0.15 µM) and the MIC90 (S. aureus strains; [4]) was 0.12 µg/mL (≈ 0.299 µM). For the same compound, the “Trend of dose-dependent efficacy” value (MRSA 2141; i.v., 0.05 to 5.0 mg/kg) was “no significant trend of dose-dependent efficacy was observed”, the “Reduction of MRSA 2141 CFU in thigh muscle” value (MRSA 2141; single i.v. dose 0.05, 0.5 or 5.0 mg/kg one day after infection) was “Approximately 2 Log reduction” and the “Signs of adverse side effects during observation after injection” value [1] was “no signs of adverse side effects were observed”.
In the case of `COc1ccc(Cl)cc1-n1nnnc1C(Cl)(Cl)c1nnnn1-c1cc(Cl)ccc1OC` [NewCo0022], the “MIC S. aureus ATCC 29213” value (S. aureus ATCC 29213; Table IV, some in duplicate) is reported as “≦0.05 micrograms per milliliter”, the “MIC S. aureus TTC03.0236” value (S. aureus TTC03.0236) is reported as 0.1 micrograms per milliliter and the “MIC S. aureus TTC03.0239” value (S. aureus TTC03.0239) is reported as 0.19 micrograms per milliliter.
With `CN[C@H](CC(C)C)C(=O)N[C@H]1C(=O)N[C@@H](CC(N)=O)C(=O)N[C@H]2C(=O)N[C@H]3C(=O)N[C@H](C(=O)N[C@H](C(=O)O)c4cc(O)cc(O)c4-c4cc3ccc4O)[C@H](O)c3ccc(c(Cl)c3)Oc3cc2cc(c3O[C@@H]2O[C@H](CO)[C@@H](O)[C@H](O)[C@H]2O[C@H]2C[C@](C)(N)[C@H](O)[C@H](C)O2)Oc2ccc(cc2Cl)[C@H]1O` [vancomycin, reference compound] the MIC (S. aureus ATCC 29213; ATCC29213, read-out: MIC S. aureus ATCC 29213, Table IV, some in duplicate) was 1.56 µg/mL (≈ 1.08 µM), the “MIC S. aureus ATCC 29213” value (S. aureus ATCC 29213; Table IV, some in duplicate, listed as vancomycine) was 0.78 micrograms per milliliter and the “Range MIC (highest)” value (S. aureus strains; 60 tested S. aureus strains) was 4 microgram/milliliter. The “Range MIC (lowest)” value (S. aureus strains; 60 tested S. aureus strains) was 0.12 microgram/milliliter, the MIC50 (S. aureus strains; Staphylococcus aureus) was 0.5 µg/mL (≈ 0.345 µM) and the MIC90 (S. aureus strains; Staphylococcus aureus) was 1 µg/mL (≈ 0.69 µM). For the same compound, the “Reduction of MRSA 2141 CFU in thigh muscle” value (MRSA 2141; positive control, single i.v. dose 10 mg/kg) was “Over 1 Log reduction”.
